Laboratory results taken from patent US20100069393A1, “METHOD OF TREATMENT AND AGENTS USEFUL FOR SAME” (PRANA BIOTECHNOLOGY LIMITED, priority 2006, published 2010).

Assays:
[1] = Blood brain barrier penetration (brain:plasma ratio after IV dose); type: in vivo; details: nominal dose 5 mg/kg, male Swiss Outbred mice
Description: A bolus injection of each of the test compound (50 μL of a 3 mg/mL aqueous solution containing 40% propylene glycol and 10% ethanol) was administered by tail vein injection to male Swiss Outbred mice (5-7 weeks of age).
At 5 and 60 min post-dose (n=3 mice at each time point), blood was collected by cardiac puncture and the whole brain was removed by making an incision through the back of the skull. Mice were anaesthetised approximately 3-4 min prior to blood and brain harvest with an intraperitoneal injection of ketamine and xylazine (133 mg/kg and 10 mg/kg, respectively).
The whole brain was placed into preweighed polypropylene vials and stored at −20° C. until analysis. On the day of analysis, the whole brain was homogenised in 3 parts of water (on ice to reduce the potential for ex vivo brain degradation) and an aliquot of the brain homogenate and plasma was analysed for compound concentration by LCMS. Standards were prepared by spiking blank brain homogenate and both samples and standards were processed by adding acetonitrile to the tissue homogenate, centrifuging and injecting an aliquot of the supernatant onto the LCMS.
To ensure complete recovery of compound from the brain, brain homogenate was spiked with compound (in 50% acetonitrile:50% water) to a nominal concentration of 500 ng/mL. The concentration of compound in the supernatant was then determined by LCMS and compared to the supernatant concentration when compound was added following precipitation with acetonitrile.

[2] = Cytotoxicity: viability of M17 cells; details: human, M17 neuroblastoma cells, Cytotoxicity (% viable at 1 and 10 uM); for viability at 1 uM: test compound 1 uM; for viability at 10 uM: test compound 10 uM
[3] = Mice plasma concentration; type: in vivo; details: for Mice plasma concentration: presence in plasma at one or two time points (between 30 min and 4 h); for Mice plasma concentration in Tg mice: one or two time points (between 30 min and 4 h)
[4] = In vivo toxicity, visual observations; details: 30 mg/kg, number of days
[5] = Neurotoxicity assay: MTS viability of primary cortical neuronal cultures; type: cell-based, mouse; details: BL6Jx129sv, mouse, primary cortical neuronal cultures, Neuronal cells, read-out: Cytotoxicity (% viable at 1 and 10 uM); for viability at 4 days, 1 uM: test compound 1 uM; for viability at 4 days, 10 uM: test compound 10 uM
[6] = E Log D (chromatographic method, pH 7.4); type: physicochemical
Description: Effective Log D values were measured using a chromatographic method employing a SUPELCOSIL LC-ABZ column using an octanol saturated mobile phase at pH 7.4. See F. Lombardo et al, J. Med. Chem. 2000, 43, 2922-2928.

[7] = in vitro; details: human, Cytotoxicity (% viable at 1 and 10 uM)
[8] = Phase I safety and tolerability in healthy volunteers; type: in vivo, human
Description: Compound B was administered to healthy volunteers in a 2-part study comprising single dose administration (Stage A) and multidose administration (Stage B).
The objectives of the Phase I trials were to determine the safety, tolerability and pharmacokinetics of single and multiple oral doses of Compound B in healthy volunteers. The double-blind studies were conducted at a Phase I unit in The Netherlands. The protocol included safety measures designed to capture the potential human adverse effects. A total of 65 healthy subjects have been exposed to doses of Compound B (41 single dose, 24 multiple dose).
In Stage A, fifty five (55) healthy male subjects aged 18-50 years were randomised (3:1) to receive a single oral dose of either placebo or Compound B at one of 7 dose levels (25, 50, 100, 200, 300, 500 or 800 mg).
In Stage B, thirty two (32) healthy male and female subjects aged 45-75 years (eight subjects per dose level) were randomised (3:1) to receive a daily oral dose over 7 consecutive days of either placebo or Compound B at one of 4 dose levels (200, 400, 600 or 800 mg). Each dose level comprised of 4 males and 4 females; the randomisation schedule ensuring that 1 subject/sex received placebo and 3 subjects/sex received Compound B.

[9] = tested on: M17 human neuroblastoma cells; assay: Cytotoxicity: viability of M17 cells
[10] = tested on: primary cortical neuronal cultured cells; assay: Neurotoxicity assay: MTS viability of primary cortical neuronal cultures; type: cell-based, mouse

Row | SMILES | B:P Ratio ([1]; 5 min post dose) | B:P Ratio ([1]; 60 min post dose) | viability at 1 uM [2] [%] | viability at 10 uM [2] [%] | Mice plasma concentration [3] | Toxicity at 30 mg/kg [4] | viability at 4 days, 1 uM [5] [%] | viability at 4 days, 10 uM [5] [%] | other results
1 | Oc1c(I)cc(Cl)c2cccnc12 | 0.20 | 0.17 | 107 | 72.7 | Up to 700 ng/mL | none | 90 | 77 | ElogD (E) [6]: 1.85
2 | Cn1cnc(CCNC(=O)c2ccc3c(Cl)cc(Cl)c(O)c3n2)c1 | 0.06 | 0.20 | 108 | 82.6 | Up to 11605 ng/mL | 10 days, none | 93 | 88 | 
3 | Oc1c(N2CCOCC2)ncc2cccnc12 |  |  | 112 | 93.7 |  | 10 days, mild toxic signs | 104 | 98 | Mice plasma concentration in Tg mice [3]: Below 80 ng/mL in Tg mice; ElogD (E) [6]: 1.45
4 | O=c1c2c(Cl)cc(Cl)c(O)c2ncn1-c1ccc(F)cc1 |  |  | 93.2 | 47.3 |  | 5 days, none | 98 | 67 | Mice plasma concentration in Tg mice [3]: Up to 120 ng/mL in Tg mice; ElogD (E) [6]: 5.32
5 | O=c1c2c(Cl)cc(Cl)c(O)c2ncn1C1CC1 | 0.26 | 0.24 | 105 | 72 | Up to 5000 ng/mL | 10 days, none | 91 | 77 | 
6 | O=c1c2c(Cl)cc(Cl)c(O)c2ncn1CC1CC1 | 0.12 | 0.07 | 96.2 | 76.8 | Up to 2698 ng/mL | 11 days, none | 116 | 105 | 
7 | O=c1c2c(Cl)cc(Cl)c(O)c2ncn1Cc1ccccn1 | 0.16 | 0.10 | 102 | 98.9 | Up to 984 ng/mL | 10 days, none | 99 | 98 | 
8 | Cc1nc(Cn2cnc3c(O)c(Cl)cc(Cl)c3c2=O)cs1 | 0.10 at 5 min, 0.10 at 60 min | 0.10 at 5 min, 0.10 at 60 min | 97 | 95.7 | Up to 2439 ng/mL | 10 days, none | 100 | 93 | 
9 | Cc1noc(C)c1Cn1cnc2c(O)c(Cl)cc(Cl)c2c1=O | 0.18 | 0.08 | 104 | 76 | Up to 3644 ng/mL | 10 days, none | 99 | 72 | 
10 | O=c1c2ccc(I)c(O)c2ncn1CC1CC1 | 0.07 | 0.06 | 111 | 65.1 | Up to 2508 ng/mL | 10 days, none |  |  | 
11 | CCCc1cnc2c(O)c(I)ccn2c1=O | 0.02 | 0.03 | 80.8 | 47.6 | Up to 11742 ng/ml ng/mL | 10 days, none |  |  | 
12 | O=c1c2cccc(O)c2ncn1Cc1cn2ccccc2n1 |  |  |  |  |  |  |  |  | viability at 1 uM [7]: 95%; viability at 10 uM [7]: 98.4%
13 | CN(C)Cc1ccc2c(Cl)cc(Cl)c(O)c2n1 [Compound B] |  |  |  |  |  |  |  |  | incidence of adverse events ([8]; Stage A, single oral dose 25-800 mg, healthy male volunteers aged 18 to 50 years): 43.9%; tolerability ([8]; Stage A, single oral dose, healthy male volunteers aged 18 to 50 years): well tolerated; tolerability ([8]; Stage B, daily oral dose over 7 days (200-800 mg), healthy subjects aged 45-75 years): generally well tolerated
14 | CN(C)Cc1ccc2c(Cl)cc(Cl)c(O)c2n1.Cl [drawing 119] | 12.85 | 9.45 | 94 | 54.3 | Up to 500 ng/ml ng/mL | None | 84 | 72 | 
15 | CCC(C)n1cnc2c(O)c(Cl)cc(Cl)c2c1=O (stereo not shown) [drawing 189] |  |  |  |  | Up to 2949 ng/mL | 10 days, none |  |  | Cytotoxicity (% viable at 1 and 10 uM) ([9]; test compound 1 uM): 99.2%; Cytotoxicity (% viable at 1 and 10 uM) ([9]; test compound 10 uM): 68.6%; Cytotoxicity (% viable at 1 and 10 uM) ([10]; test compound 1 uM): 94%; Cytotoxicity (% viable at 1 and 10 uM) ([10]; test compound 10 uM): 67%
16 | O=c1c2c(Cl)cc(Cl)c(O)c2ncn1-c1ccccn1 [drawing 288] |  |  |  |  | Up to 144.2 ng/mL | 10 days, none |  |  | Cytotoxicity (% viable at 1 and 10 uM) ([9]; test compound 1 uM): 107.8%; Cytotoxicity (% viable at 1 and 10 uM) ([9]; test compound 10 uM): 89.2%
